This is an account of results in PubChem BioAssay AID1259407 (Chemical Carcinogenesis Research Information System (CCRIS), 2018).

In the data set the test system is CCRIS mutagenicity, Ames/micronucleus/aberration tests. The data set can be described thus: CCRIS mutagenicity studies.
The mark [1] stands for this setting: Test System: AMES SALMONELLA TYPHIMURIUM, Strain/Indicator: TA98, Metabolic Activation: NONE, Method: PREINCUBATION
Where [2] appears, read: Test System: AMES SALMONELLA TYPHIMURIUM, Strain/Indicator: TA100, Metabolic Activation: NONE, Method: PREINCUBATION
Setting [3] is: Test System: AMES SALMONELLA TYPHIMURIUM, Strain/Indicator: TA98, Metabolic Activation: NONE, Method: STANDARD PLATE.
The mark [4] stands for this setting: Test System: AMES SALMONELLA TYPHIMURIUM, Strain/Indicator: TA100, Metabolic Activation: NONE, Method: STANDARD PLATE.
Where [5] appears, read: Test System: AMES SALMONELLA TYPHIMURIUM, Strain/Indicator: TA1535, Metabolic Activation: NONE, Method: STANDARD PLATE.
Where [6] appears, read: Test System: AMES SALMONELLA TYPHIMURIUM, Strain/Indicator: TA1537, Metabolic Activation: NONE, Method: STANDARD PLATE.

Activity calls are given as the source filed them. No rule for the calls is given here.

Turning to `O=C(O)c1cc([N+](=O)[O-])cc([N+](=O)[O-])c1`, the mutagenic call under setting [1] was “active; positive”; the mutagenic call (Test System: AMES SALMONELLA TYPHIMURIUM, Strain/Indicator: TA98, Metabolic Activation: RAT, LIVER, S-9, KANECHLOR 500, Method: PREINCUBATION) is “active; positive”; the mutagenic call under setting [2] was “active; positive”; the mutagenic call (Test System: AMES SALMONELLA TYPHIMURIUM, Strain/Indicator: TA100, Metabolic Activation: RAT, LIVER, S-9, KANECHLOR 500, Method: PREINCUBATION) was “active; positive”.

Take `CCCCCCCCCCCCN`: the mutagenic call is, setting by setting: (End Point: In vitro Chromosomal aberrations, Test System: CHO Cells, Metabolic Activation: None) “inactive; negative; cytotoxic at 12 and 18 ug/ml”; (End Point: In vitro Chromosomal aberrations, Test System: CHO Cells, Metabolic Activation: Rodent S-9) “inactive; negative; cytotoxic at 12 and 18 ug/ml”.

For the compound `CC(CNC(=O)c1cccnc1)NC(=O)c1cccnc1` (stereo not drawn), the mutagenic call under setting [3] is “inactive; negative”; the mutagenic call (Test System: AMES SALMONELLA TYPHIMURIUM, Strain/Indicator: TA98, Metabolic Activation: RAT, LIVER, S-9, PHENOBARBITAL AND 5,6-BENZOFLAVONE, Method: STANDARD PLATE) is “inactive; negative”; the mutagenic call under setting [4] is “inactive; negative”; the mutagenic call (Test System: AMES SALMONELLA TYPHIMURIUM, Strain/Indicator: TA100, Metabolic Activation: RAT, LIVER, S-9, PHENOBARBITAL AND 5,6-BENZOFLAVONE, Method: STANDARD PLATE) is “inactive; negative”; the mutagenic call under setting [5] is “inactive; negative”; the mutagenic call (Test System: AMES SALMONELLA TYPHIMURIUM, Strain/Indicator: TA1535, Metabolic Activation: RAT, LIVER, S-9, PHENOBARBITAL AND 5,6-BENZOFLAVONE, Method: STANDARD PLATE) is “inactive; negative”. Moreover, the mutagenic call under setting [6] is “inactive; negative”; the mutagenic call (Test System: AMES SALMONELLA TYPHIMURIUM, Strain/Indicator: TA1537, Metabolic Activation: RAT, LIVER, S-9, PHENOBARBITAL AND 5,6-BENZOFLAVONE, Method: STANDARD PLATE) is “inactive; negative”; the mutagenic call (Test System: E. COLI, Strain/Indicator: WP2 UVRA, Metabolic Activation: NONE, Method: STANDARD PLATE) is “inactive; negative”; the mutagenic call (Test System: E. COLI, Strain/Indicator: WP2 UVRA, Metabolic Activation: RAT, LIVER, S-9, PHENOBARBITAL AND 5,6-BENZOFLAVONE, Method: STANDARD PLATE) was “inactive; negative”.

With `ClCc1cc2cccc3ccc4c5ccccc5cc1c4c32`, the mutagenic call is, setting by setting: under setting [3], “active; positive”; under setting [4], “active; positive”.

With `c1ccc2cc3c(ccc4c5ccccc5ccc34)cc2c1`, the mutagenic call by setting is: (Test System: AMES SALMONELLA TYPHIMURIUM, Strain/Indicator: TA100, Metabolic Activation: RAT, LIVER, MICROSOMES, AROCLOR 1254, Method: STANDARD PLATE) “inactive; negative”; (Test System: AMES SALMONELLA TYPHIMURIUM, Strain/Indicator: TA100, Metabolic Activation: RAT, LIVER, MICROSOMES, BENZO[B]CHRYSENE, Method: STANDARD PLATE) “inactive; negative”; (Test System: AMES SALMONELLA TYPHIMURIUM, Strain/Indicator: TA100, Metabolic Activation: RAT, LIVER, MICROSOMES, Method: STANDARD PLATE) “inactive; negative”.

Consider `Cc1c(N)nc([C@H](CC(N)=O)NC[C@H](N)C(N)=O)nc1C(=O)N[C@H](C(=O)N[C@H](C)[C@@H](O)[C@H](C)C(=O)N[C@H](C(=O)NCCc1nc(-c2nc(C(=O)NCCCN(C)CCCN=C(N)CC3CCC(Cl)CC3)cs2)cs1)[C@@H](C)O)[C@@H](O[C@@H]1O[C@@H](CO)[C@@H](O)[C@H](O)[C@@H]1O[C@H]1O[C@H](CO)[C@@H](O)[C@H](OC(N)=O)[C@@H]1O)c1cnc[nH]1` (stereo partly drawn), for which the mutagenic call runs as follows: (Test System: AMES SALMONELLA TYPHIMURIUM, Strain/Indicator: TA94, Metabolic Activation: NONE, Method: PREINCUBATION) “active; positive”; (Test System: AMES SALMONELLA TYPHIMURIUM, Strain/Indicator: TA102, Metabolic Activation: NONE, Method: PREINCUBATION) “active; positive”.

In the case of `C#C[C@]1(OC(=O)CCCCCC)CC[C@H]2[C@@H]3CCC4=CC(=O)CC[C@@H]4[C@H]3CC[C@@]21C`, the mutagenic call by setting is: under setting [1], “inactive; negative”; under setting [3], “inactive; negative”; (Test System: AMES SALMONELLA TYPHIMURIUM, Strain/Indicator: TA98, Metabolic Activation: RAT, LIVER, S-9, AROCLOR 1254, Method: PREINCUBATION) “inactive; negative”; (Test System: AMES SALMONELLA TYPHIMURIUM, Strain/Indicator: TA98, Metabolic Activation: RAT, LIVER, S-9, AROCLOR 1254, Method: STANDARD PLATE) “inactive; negative”; under setting [2], “inactive; negative”; under setting [4], “inactive; negative”. In addition, the mutagenic call runs as follows: (Test System: AMES SALMONELLA TYPHIMURIUM, Strain/Indicator: TA100, Metabolic Activation: RAT, LIVER, S-9, AROCLOR 1254, Method: PREINCUBATION) “inactive; negative”; (Test System: AMES SALMONELLA TYPHIMURIUM, Strain/Indicator: TA100, Metabolic Activation: RAT, LIVER, S-9, AROCLOR 1254, Method: STANDARD PLATE) “inactive; negative”; (Test System: AMES SALMONELLA TYPHIMURIUM, Strain/Indicator: TA1535, Metabolic Activation: NONE, Method: PREINCUBATION) “inactive; negative”; under setting [5], “inactive; negative”; (Test System: AMES SALMONELLA TYPHIMURIUM, Strain/Indicator: TA1535, Metabolic Activation: RAT, LIVER, S-9, AROCLOR 1254, Method: PREINCUBATION) “inactive; negative”; (Test System: AMES SALMONELLA TYPHIMURIUM, Strain/Indicator: TA1535, Metabolic Activation: RAT, LIVER, S-9, AROCLOR 1254, Method: STANDARD PLATE) “inactive; negative”. In addition, the mutagenic call is, setting by setting: (Test System: AMES SALMONELLA TYPHIMURIUM, Strain/Indicator: TA1537, Metabolic Activation: NONE, Method: PREINCUBATION) “inactive; negative”; under setting [6], “inactive; negative”; (Test System: AMES SALMONELLA TYPHIMURIUM, Strain/Indicator: TA1537, Metabolic Activation: RAT, LIVER, S-9, AROCLOR 1254, Method: PREINCUBATION) “inactive; negative”; (Test System: AMES SALMONELLA TYPHIMURIUM, Strain/Indicator: TA1537, Metabolic Activation: RAT, LIVER, S-9, AROCLOR 1254, Method: STANDARD PLATE) “inactive; negative”; (Test System: AMES SALMONELLA TYPHIMURIUM, Strain/Indicator: TA1538, Metabolic Activation: NONE, Method: PREINCUBATION) “inactive; negative”; (Test System: AMES SALMONELLA TYPHIMURIUM, Strain/Indicator: TA1538, Metabolic Activation: NONE, Method: STANDARD PLATE) “inactive; negative”. The mutagenic call (Test System: AMES SALMONELLA TYPHIMURIUM, Strain/Indicator: TA1538, Metabolic Activation: RAT, LIVER, S-9, AROCLOR 1254, Method: PREINCUBATION) is “inactive; negative” and the mutagenic call (Test System: AMES SALMONELLA TYPHIMURIUM, Strain/Indicator: TA1538, Metabolic Activation: RAT, LIVER, S-9, AROCLOR 1254, Method: STANDARD PLATE) is “inactive; negative”.
